# Assay results taken from PMC9137037 (Frontiers in Oncology, 2022).
# Where no end group is shown, it is not given here.
# Legend:
# cynomolgus monkeys = assay: GLP repeat-dose toxicology, second monkey study No.00213519; format: in vivo, Macaca fascicularis
# Experimental: The non-human primate studies were carried out by the Charles River Laboratories (Ashland, OH USA). All the cynomolgus monkeys (Macaca fascicularis of Chinese origin) were obtained from Charles River Laboratories (Houston, TX, USA). In brief, the animals were approximately 2–4 years old and at the body weight between 2.2 and 3.1 kg at the initial dosing. The animals were kept at the temperature between 19°C and 24°C, humidity 30%–70%, and with 12 h light and 12 h dark light cycle. The Good manufacturing practice (GMP)-manufactured vaccine was used in the non-human primate study. […] Similar to mouse and dog dosing preparation, after the emulsion was prepared, a drop test was performed on each time of dosing to confirm that the emulsion had been prepared properly. […] The dose volume was split approximately equally across two different sites; 0.5 ml of the dose was intramuscularly (IM) injected into the right posterior lateral thigh, the left dosing was injected into the left site. All the animals’ body weights were monitored weekly after receiving. After each immunization, the animal body temperature was tested 6 and 24 h post each immunization. […] The animal bleed were collected before each time of immunization to monitor the antibody titers. There were two sets of non-human primate studies conducted. The first set of monkey study No.00213515 had 24 monkeys, 12 males, and 12 females divided into 4 groups: vehicle control, low dose 0.5 mg, medium dose 2 mg, and high dose 5 mg. There were 16 monkeys (8 males and 8 females) in the second set of monkey study No. 00213519. The monkeys in the four groups were vaccinated as follows: vehicle control, low dose 25 μg, medium dose 100 μg, and high dose 250 μg.
# In the second set of non-human primate study (#00213519), 16 non-human primates, cynomolgus monkeys, were used. The monkeys were immunized […] at 2-week intervals represented by 1Y, 2Y, 3Y, and 4Y at days 1, 15, 29, and 43, respectively.The bleed were collected at day 1 (pre), day 29 (2Y+2/3Y), day 43 (3Y+2 and 4Y), and day 57 (4Y+2) ( Figure 4C ). There were four groups with 4 monkeys (2 males and 2 females) in each group. Group 1 was the control group, which was treated with only ISA 720 and ddwater. […] The Immunogenicity of peptide-based vaccines in non-human primates was detected by using ELISA to detect antibody titers in the sera of both non-human primate studies ( Figures 4E, F ). The relative high antibody responses have been established in each individual cynomolgus monkey.
# A slight increase in anti-APi2568 antibody titers was observed between day 29 and day 43, with no apparent reduction in titers by […].
# BALB/c mice = assay: Observation for autoimmune symptoms in immunized mice; format: in vivo, mouse
# Description: The common autoimmune symptoms are identified as follows: skin rashes, low-grade fever, achy muscles, fatigue, hair loss, trouble concentrating, and so on. […] For the dogs, the high volume of ISA 720 caused a lesion near the injection site that might result in mild swelling, but the symptoms were resolved weeks after. The immunized monkeys had some swelling at or near the site of IM injection, especially after the second or third dose and more frequent in females than males. In all the clinical observations, these animals either had recovered or were in the process of recovering. Despite these adverse clinical findings, all of them were active and in good condition throughout the project. Overall, there were no observable signs or uncontrolled autoimmune symptoms.
# [1] = 0, 25, 100, 250 µg/dose, days 1, 15, 29, 43, 14-day recovery
sequence,measurement,setting,value
KLLSLIKGVIVHRLEGVEGPSLGAISLAPKAQIKESLRAEL [MVF-PD-1(92-110)],"effects on body weight, food consumption, body temperature, clinical pathology parameters, or organ weight",cynomolgus monkeys; [1],No APi2568-related adverse effects
same,survival,cynomolgus monkeys; [1],All monkeys survived to the scheduled necropsy
same,NOAEL,"cynomolgus monkeys; 25, 100, 250 µg/dose IM as PD1-Vaxx, male and female cynomolgus monkeys",100 µg/dose
same,safety (summary),cynomolgus monkeys; monkey 2nd set,safe
same,microscopic finding in the biceps femoris IM injection site,"cynomolgus monkeys; single 250 µg/dose group female monkey, 4 doses at 2-week intervals",adverse necrosis
same,induction of autoimmune responses,BALB/c mice,has not been observed
